For the experiment, the system named is NSC-34 cells. As to the kind of experiment: Evaluation on cell membrane permeability by flow cytometry (median fluorescence intensity). In kind it is cell-based, mouse. The conditions noted are these: for MFI (median fluorescence intensity): 25 μM in well, 0.42% DMSO, 20 hours at 37° C., 10% FBS-containing DMEM, detector FL2; for cell membrane permeability: 25 μM, 20 hours, FAM as foreign substance, in words. As for the experimental part:
As the eukaryotic cells, NSC-34 cells (mouse motor neuron-like hybrid cell line) were used and the cell membrane permeability of the samples 1 to 7 was analyzed. In Examples 1 to 7, the prepared sample solutions 1 to 7 were used, respectively, and in Example 8, a FAM solution was used.
The NSC-34 cells were cultured in 10% fetal bovine serum (FBS)-containing Dulbecco's modified Eagle's medium (DMEM (Cat No. 044-29765, manufactured by FUJIFILM Wako Pure Chemical Corporation)), which is a normal culture medium.
The NSC-34 cells that adhered to a culture plate were cleaned with PBS and then, a 0.25%-trypsin/EDTA solution was added thereto, and incubation was performed for three minutes at 37° C. After the incubation, the aforementioned 10% FBS-containing DMEM was added to deactivate trypsin and then, five-minute centrifugal separation was performed at 150×g to precipitate the cells. After the supernatant generated by the centrifugal separation was removed, the 10% FBS-containing DMEM was added to the precipitate (cell pellet) to prepare a cell suspension of about 2×10^5 cells/mL. The cell suspension was added by 1 mL to a well of a commercially available six-hole (well) plate (manufactured by AGC TECHNO GLASS Co., Ltd.) so as to seed the cell (about 2×10^5 cells/well). In addition, the 6 mM sample solution 1 was diluted with the 10% FBS-containing DMEM to prepare the sample solution 1 in which the concentration of the sample 1 was 50 μM. Then, 1 mL of the 50 μM sample solution 1 was added to the well (that is, so that the concentration of the sample 1 became 25 µM and the DMSO concentration became 0.42% in the culture solution in the well). After that, the cell was incubated for 20 hours at 37° C. under a 5% CO2 condition.
After the 20-hour incubation, the culture supernatant was removed from the well and the cells in the well were cleaned twice with 1 mL of PBS. Next, 200 μL of the 0.25% trypsin/EDTA solution was added to the well and the incubation was performed for three minutes at 37° C. After the incubation, 400 μL of the 10% FBS-containing DMEM was added to the well to deactivate the trypsin. Subsequently, the cell suspension in the well was transferred to a tube and the cells were collected. After that, 600 μL of PBS was added further to the well to clean the well. Then, PBS in the well was transferred to the tube, so that the cells remaining in the well were collected in the tube. This tube was subjected to five-minute centrifugal separation at 4° C. under a condition of 210×g. After the centrifugal separation, the supernatant was removed and the precipitate (cell pellet) was suspended (cleaned) with 1 mL of PBS, which was followed by the centrifugal separation under the same condition as that described above. After this operation was repeated twice, the supernatant was removed and thus, the cells (cell pellet) cultured in a culture medium containing the sample 1 were obtained.
Regarding the obtained cells (cell pellet), the cell membrane permeability of the sample 1 was analyzed using a flow cytometer. As the flow cytometer, On-Chip Flowcytometer (manufactured by On-Chip Biotechnologies Co., LTD.) was used.
For such an analysis, the obtained cell pellet was suspended with 100 μL of on-chip T buffer to prepare a cell suspension for analysis.
Using the aforementioned flow cytometer, gating based on forward scatter (FSC) and side scatter (SSC) was performed to set a gate about a cell group to be analyzed, and the fluorescence intensity was measured about the cell group in this gate. Note that the analysis was performed so that the cell group contained at least 10000 cells or more. The fluorescence intensity was measured using a fluorescence detector FL2 of the flow cytometer (optimum detection wavelength around 543 nm) capable of detecting the fluorescence wavelength of FAM. […]

We go through eight substances from patent publication US20260315608A1, “Carrier Peptide Fragment and Use Thereof” (TOAGOSEI CO., LTD., priority 2022, published 2026).

Primed or numbered codes have the meaning given here. FAM″ = C-terminal FAM dye

Consider “Ac-KKRTLRKDERKKR-FAM (Ac-KKRTLRKDERKKR-{FAM}) [Example 1]”, for which the “MFI (median fluorescence intensity)” value is listed as 16.3 and the cell membrane permeability entry was “have the cell membrane permeability”.

Regarding “Ac-KKRTLRKEDRKKR-FAM (Ac-KKRTLRKEDRKKR-{FAM}) [Example 2]”, the “MFI (median fluorescence intensity)” value amounted to 15.7 and the cell membrane permeability entry is listed as “have the cell membrane permeability”.

On to “Ac-KKRTLRKEDEDEDRKKR-FAM (Ac-KKRTLRKEDEDEDRKKR-{FAM}) [Example 7]”, for which the “MFI (median fluorescence intensity)” value is listed as 14.3.

“Ac-KKRTLRKDDEERKKR-FAM (Ac-KKRTLRKDDEERKKR-{FAM}) [Example 5]”: the “MFI (median fluorescence intensity)” value is given as 14.8.

As to “Ac-KKRTLRKDEDERKKR-FAM (Ac-KKRTLRKDEDERKKR-{FAM}) [Example 6]”, the “MFI (median fluorescence intensity)” value stood at 15.2.

With “Ac-KKRTLRKEEDDRKKR-FAM (Ac-KKRTLRKEEDDRKKR-{FAM}) [Example 4]”, the “MFI (median fluorescence intensity)” value amounted to 14.3.

“5 (6)-carboxyfluorescein [Example 8, reference compound]”: the “MFI (median fluorescence intensity)” value is 11.

On to “Ac-KKRTLRKEDEDRKKR-FAM (Ac-KKRTLRKEDEDRKKR-{FAM″}) [Example 3]”, for which the “MFI (median fluorescence intensity)” value is 13.8.
